From article PMC8122790, “Chemical Constituents of Cassia abbreviata and Their Anti-HIV-1 Activity” (Molecules, 2021)
Where two headings read alike, the source gives them in different places.

Experiments:
HIV-1 IIIB = test: microbe, parasite or virus in culture; settings: read-out: IC50 HIV-1 Infection
Protocol: The crude extract of Cassia abbreviata and all isolated compounds were assessed for their anti-HIV activity in MT4 cells infected by the reference strain HIV-1 IIIB (Figure 3). […] Enfuvirtide and Plerixafor are entry inhibitors for positive controls.
(§1) MT4 cells were obtained through the NIH AIDS Reagent Program and cultured in RPMI 1640 (Lonza, Wijchen, the Netherlands) supplemented with 10% heat-inactivated fetal bovine serum (Lonza, the Netherlands) and 2mM L-glutamine (Invitrogen, Gosselies, Belgium). MT-4 cells were incubated with the crude extract of Cassia abbreviatta or the tested compounds alone to assess cytotoxicity, or HIV-1 IIIB alone or a mixture of the tested extract and compounds and HIV-1 IIIB viruses to assess protection against HIV-1 infection. After five days, protection from viral infection and the cytotoxicity were evaluated in parallel using (3-(4,5-dimethylthiazol-2-yl)-2,5-diphenyltetrazolium bromide (MTT, Sigma, Liège, Belgium) by measuring OD540 and OD690 using a POLARstar Omega Plate Reader (BMG Labtech, Ortenberg, Germany). Data were normalized to cells without treatment. Values of OD540−OD690 were calculated to determine IC50 values in Prism. The entry inhibitors, enfuvirtide, and AMD3100 (Sigma Aldrich, Liège, Belgium), were used as positive controls.

[1] = Cytotoxicity in MT4 cells (MTT); type: cell-based; settings: for IC50 at 5 days: human
Protocol: as §1, with “After five days, protection from viral infection and the cytotoxicity were evaluated in parallel using (3-(4,5-dimethylthiazol-2-yl)-2,5-diphenyltetrazolium bromide (MTT, Sigma, Liège, Belgium) by measuring OD540 and OD690 using a POLARstar Omega Plate Reader (BMG Labtech, Ortenberg, Germany).” left out

[2] = Human immunodeficiency virus 1, IIIB, MT4, 120 h
[3] = MT4 cells incubated with compound alone, five days, MTT, read-out: IC50 Cytotoxicity

Row | Compound | IC50 (HIV-1 IIIB; [2]) | IC50 at 5 days [1] | IC50 at 5 days [1, 3] | IC50 (HIV-1 IIIB; MT4 cells infected by reference strain HIV-1 IIIB, five days, MTT, mean ± SD, three experiments) | IC50 ([1]; MT4 cells incubated with compound alone, five days, MTT)
1 | CC12OC(=O)CC1C1Oc3c(c(O)cc(O)c3C3c4ccc(O)cc4OC(c4ccc(O)cc4)C3O)CC1O2 (stereo not drawn) [Cassiabrevone (1), guibourtinidol (4α→8) planchol A] | 11.9 ± 2.14 µM | > 333 µM |  |  | 
2 | Oc1ccc([C@H]2Oc3cc(O)ccc3[C@@H](c3c(O)cc(O)c4c3O[C@H](c3ccc(O)cc3)[C@H](O)C4)[C@@H]2O)cc1 [Guibourtinidol-(4α→8)-epiafzelechin (4), guibourtinidol-(4α→8)-epiafzelechin] | 15.4 ± 9.09 µM | > 333 µM |  |  | 
3 | CC1(C)CC[C@]2(C(=O)O)CC[C@]3(C)C(=CC[C@@H]4[C@@]5(C)CC[C@H](O)C(C)(C)[C@@H]5CC[C@]43C)[C@@H]2C1 [Oleanolic acid (17), oleanolic acid] | 7.95 ± 2.57 µM |  | > 333 µM |  | 
4 | CCCCCCCCCCCCCCCC(=O)O [Palmitic acid (28), Palmitic acid] | 16 ± 3.04 µM | > 333 µM |  |  | 
5 | Enfuvirtide |  |  |  | 0.0096 ± 0.001 µM | 
6 | enfuvirtide |  |  |  |  | > 1 µM

The next lines start with results.

Row | IC50 (HIV-1 IIIB; [2]) | Compound | IC50 at 5 days [1] | IC50 at 5 days [1, 3] | IC50 (HIV-1 IIIB; MT4 cells infected by reference strain HIV-1 IIIB, five days, MTT, mean ± SD, three experiments) | IC50 ([1]; MT4 cells incubated with compound alone, five days, MTT)
7 | 3.58 ± 0.27 µM | Oc1cc(O)cc(/C=C/c2ccc(O)c(O)c2)c1 [Piceatannol (22), piceatannol] | > 333 µM |  |  | 
8 | 0.075 ± 0.009 µM | c1cc(CN2CCCNCCNCCCNCC2)ccc1CN1CCCNCCNCCCNCC1 [Plerixafor (AMD3100), Plerixafor, reference compound] | > 1 µM |  |  | 
9 | 49 ± 5.02 µM | O=C1c2c(O)cc(O)cc2OC(c2ccc(O)c(O)c2)C1O (stereo not shown) [Taxifolin (8), taxifolin] |  | > 333 µM |  | 
